Legend:
Assay type in all cases: cell-based, human
[1] = system: Fb859 propionic acidemia patient fibroblasts; test: Lysine succinylation of cellular proteins by immunofluorescence confocal microscopy; conditions: media without glucose
Method: FIG. 7 are immunocytochemistry photomicrographs showing the effect of incubation of Fb859 propionic acidemia patient fibroblasts on for lysine succinylation with 90 μM of PMA010, 90 μM of PMA011, 90 μM of succinic acid, 90 μM of methylmalonic acid, or 90 μM adipic acid for 72 hours. Immunocytochemistry of the fibroblast cells were stained for anti-succinyllysine antibody, anti-MTCO1 antibody and DAPI for nuclei. Instrument: Zeiss LSM 710 confocal Microscopy. Magnification: 40×. The cells were grown in glass coverslips at a seeding density of 3-5×10^4 cells. The media for untreated and treatment groups had no glucose, glutamine or pyruvate, and lipid stripped FBS was included instead of regular FBS. Scale bar=20 μm.
FIGS. 8A-8F are a comparison of lysine succinylation of cellular proteins visualized by immunofluorescence confocal microscopy in a Propionic Acidemia (Fb859) patient untreated (FIG. 8A) and treated with 30 μM and 90 μM of D-Serine (FIG. 8B), 30 µM and 90 μM of PMA007 (FIG. 8C), or 30 μM and 90 μM of PMA010 (FIG. 8D). Scale bar=20 μm. FIG. 8E is a bar graph showing the quantification of the percent change in lysine succinylation (green) signal, from the immunofluorescence confocal micrographs of FIGS. 8B and 8C, in response to the treatment of D-serine and PMA007. FIG. 8F is a bar graph showing the quantification of the percent change in lysine succinylation (green) signal, from the immunofluorescence confocal micrographs of a D-Serine repeat experiment and FIG. 8D, in response to the treatment of D-serine and PMA010. Asterisks indicate statistical significance calculated at the raw data level (n=3); **P<0.01, ***P<0.001, ****P<0.0001 statistically compared to untreated. Statistical analysis used T-test.
Immunohistochemistry: Patient cells were grown in glass coverslips at a seeding density of 3-5×10^4 cells. The media for untreated and treatment groups had no glucose, glutamine or pyruvate, and lipid stripped FBS was included instead of regular FBS. NIH Image J software was used to quantify the fluorescence intensity from 50-60 cells per group. Immunocytochemistry of propionic acidemia patient (Fb859) fibroblast cells lines stained for anti-succinyllysine (Green), anti-MTCO1 (Red), or anti-TOMM20 antibodies, and DAPI (Blue) for nuclei. Instrument: Zeiss LSM 710 confocal Microscopy. Statistical analysis used Tukey multiple range test. ****P<0.0001, [PMA010] (90 μM) treatment group statistically compared to control cells grown in the presence of regular complete DMEM media, untreated and [PMA010] (30 μM) cells grown in the absence of glucose/pyruvate/L-glutamine.

[2] = system: ETC components (UQCRC2, COXII, NDUFB8) in PA cell line Fb859 and MMA cell line Fb857; test: Detection of ETC components by western blots; conditions: FIG. 11; 72 h treatment
Method: FIG. 11 are western blots showing correction in the signals of Complex III subunit Core 2 48-kDa (UQCRC2), Complex IV subunit II 22-kDa (COXII), and Complex I subunit NDUFB8 18-kDa that is most pronounced in the propionic acidemia (PA) cell line Fb859 compared to the methylmalonic aciduria (MMA) cell line Fb857.
Detection of ETC components by western blots: Same as above, media A for control, and media B for untreated and treated cells in T75 flasks. Amounts of compounds were added appropriately directly to cell culture media when the cultures were about 85-90 confluent. The cultures were allowed to grow for 72 h at 37° C./5% CO2, and then harvested. Harvested cell pellets were stored at −80° C. until immune and enzymatic assay and western blot analyses of OXPHOS subunits. One to 1.5 ml media samples were also stored at −80° C. for.

[3] = system: control fibroblast cell line FB826; test: Mitochondrial ROS production using MitoSOX Red; conditions: FIG. 15A; 180 and 640 μM, 72 h
Source text: (§1) FIGS. 15A-15D are graphs showing the measurement of mitochondrial reactive oxygen species (ROS) production using MitoSOX Red as Superoxide indicator probe. FIG. 15A is a graph showing control fibroblast cell line FB826 treated with PMA010, PMA011, PMA019, and PMA020. FIG. 15B is a graph showing propionic acidemia (PA) patients' fibroblast cell linc Fb859 treated with PMA010, PMA011, PMA019, and PMA020. FIG. 15C is a graph showing propionic acidemia (PA) patients' fibroblast cells line Fb900 treated with PMA010, PMA011, PMA019, and PMA020. FIG. 15D is a graph comparing ROS production levels in response to treatment with PMA011 in Control fibroblast cell line (FB826), PA fibroblast cell line (Fb900), and glutaric acidemia II (GA II) patient fibroblast cell lines (Fb930, Fb961). Data are the average of readings from 3 replicate wells.
(§2) Measurement of mitochondrial ROS production using MitoSOX Red as superoxide indicator probe: control (Fb826), PA patient (Fb859, Fb900) and GA II patient (Fb930, Fb961) fibroblasts were grown in regular DMEM media containing glucose/pyruvate/L-glutamine until 85-90% confluency. The cells were harvested and seeded at a concentration of 25,000 cells/80 μl (n=3) in cell culture treated black wall 96 well microplate with clear bottom in regular DMEM media containing glucose/pyruvate/L-glutamine and incubated overnight at 37° C. in a 5% CO2 incubator. Following day, the culture media was replaced in designated wells with the following for 72 h: 150 μl regular DMEM (Glucose+10% FBS+sodium pyruvate+L-glutamine+0.5 mM carnitine). 150 μl of Regular DMEM containing experimental compounds (180 and 640 μM) PMA010 or PMA011 or PMA 019 and (640 μM) PMA020 in control and propionic acidemia patient fibroblasts. 150 μl of regular DMEM containing experimental compounds (600 and 1200 μM) PMA011 in Fb930 and (1200 μM) PMA011 in Fb961 GA II patient fibroblast. After 72 h incubation the wells were washed twice with 150 μL of Seahorse XFDMEM base media and in respective designated wells the following Assay buffer (150 μL of seahorse XFDMEM base media containing glucose, sodium pyruvate and Glutamine) was used along with 5 μM MitoSOX reagent and incubated at 37° C. non-CO2 incubator for 15 minutes protected from light. After 15 minutes incubation the cells were washed twice with 150 μL of seahorse XFDMEM base media and replaced with measurement buffer, which is same as the wash buffer. The fluorescence was monitored with excitation at 520 nm and emission at 580 nm. Finally, cells were lysed, and protein content was determined. Data is normalized to protein concentration and fluorescence is reported as MitoSOX Red (AFU)/mg protein.

[4] = system: propionic acidemia (PA) fibroblast cell line Fb900; test: Mitochondrial ROS production using MitoSOX Red; conditions: FIG. 15C; 180 and 640 μM, 72 h
Source text: as §1, §2

SMILES: C[C@@H](NC(=O)CCCCC(=O)O)C(=O)N[C@H](Cc1c[nH]cn1)C(=O)O [PMA010, 6-(((R)-1-(((R)-1-carboxy-2-(1H-imidazol-4-yl)ethyl)amino)-1-oxopropan-2-yl)amino)-6-oxohexanoic acid]
- lysine succinylation (green staining) compared to untreated cells ([1]; FIG. 7, 90 μM, 72 hours, glutamine or pyruvate, lipid stripped FBS): obvious increase in the green staining
- lysine succinylation (green) signal ([1]; FIGS. 8A-8F, 30 μM and 90 μM, pyruvate, glutamine, stripped FBS): Restoration of lysine succinylation (green) signal
- correction in the signals of UQCRC2, COXII and NDUFB8 (western blot) [2]: better effect compared to PMA007
- ROS detected (MitoSOX Red) [3]: significant decrease in ROS
- ROS detected (MitoSOX Red) [4]: significant decrease in ROS

From patent US20260021186A1, “Fatty Acid-D-Amino Acid Peptides Conjugates as Anaplerotic Compounds for Use in Treating Propionic Acidemia, Methylmalonic Acidurias, and Energy Metabolic Disorders” (University of Pittsburgh - Of the Commonwealth System of …, priority 2022, published 2026)
